Laboratory results taken from US10517889B2, “Modulators of SMAD7 expression” (Ionis Pharmaceuticals, Inc., priority 2017, dated 2019).
Strand notation (5' to 3'): a small letter for the sugar, then the base; units joined by * are phosphorothioate-linked, units joined directly phosphodiester-linked; [ ] holds rarer units or linkages, { } end groups; capitals alone tell only the bases. k = constrained ethyl (cEt); [5mC] = 5-methylcytosine; d = 2'-deoxy (DNA)

Each substance was assayed on human SMAD7 mRNA (assay: Antisense inhibition of human SMAD7 mRNA expression in Hep3B cells by 3-10-3 cEt gapmers, 10,000 nM, electroporation (Example 2)). Conditions: Hep3B cells, 10,000 nM antisense oligonucleotide, electroporation, approximately 24 hours, RT-PCR primer probe set RTS5062, relative to untreated control cells.
Assay type: cell-based
Summary of the method: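 qRT-PCR (RTS5062) of SMAD7 mRNA, normalised to RIBOGREEN total RNA, gave percent inhibition relative to untreated controls. Hep3B cells at 20,000 per well received 10,000 nM oligonucleotide by electroporation, with ~24 h treatment.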

Substance	% Inhibition [%]
798909 (kA*k[5mC]*kG*d[5mC]*dG*dG*d[5mC]*dT*dA*d[5mC]*d[5mC]*dG*dG*k[5mC]*kT*kG; antisense) [compound 798909]	42
798911 (kG*k[5mC]*kA*d[5mC]*dG*d[5mC]*dG*dG*d[5mC]*dT*dA*d[5mC]*d[5mC]*kG*kG*k[5mC]; antisense) [compound 798911]	0
798822 (kG*kT*kA*dG*dA*dG*d[5mC]*d[5mC]*dT*d[5mC]*d[5mC]*d[5mC]*d[5mC]*kA*k[5mC]*kT; antisense) [compound 798822]	56
799934 (antisense kA*k[5mC]*kT*dT*dT*dT*dT*dA*d[5mC]*dT*d[5mC]*dT*dG*kT*k[5mC]*kT) [compound 799934]	61
798856 (kT*kG*k[5mC]*dG*dG*dT*dT*dG*dT*dA*d[5mC]*dA*d[5mC]*k[5mC]*k[5mC]*kA; antisense) [compound 798856]	67
798855 (kT*kT*kG*dT*dA*d[5mC]*dA*d[5mC]*d[5mC]*d[5mC]*dA*d[5mC]*dA*k[5mC]*kA*k[5mC]; antisense) [compound 798855]	11

Same assay, conditions: Hep3B cells, electroporation with 10,000 nM antisense oligonucleotide, approximately 24 hours, RTS5062, percent inhibition of SMAD7 mRNA relative to untreated control cells

Substance	% Inhibition [%]
799549 (kG*k[5mC]*kT*d[5mC]*d[5mC]*dT*dA*d[5mC]*dT*dG*dT*dT*dG*kG*k[5mC]*kA; antisense) [compound 799549]	53
799729 (antisense kT*kA*kT*d[5mC]*dT*dT*d[5mC]*d[5mC]*d[5mC]*dG*d[5mC]*dT*dG*kA*kA*kA) [compound 799729]	52
799841 (antisense kA*kA*kA*dG*dA*dA*dT*dG*dG*dT*dG*dG*dG*kT*kG*k[5mC]) [compound 799841]	37

Same assay, conditions: Hep3B cells, electroporation with 10,000 nM antisense oligonucleotide, approximately 24 hours, SMAD7 mRNA by RT-PCR (RTS5062), relative to untreated control cells

Substance	% Inhibition [%]
799989 (kT*kG*k[5mC]*dA*d[5mC]*d[5mC]*dT*dG*dG*d[5mC]*dA*dA*d[5mC]*k[5mC]*kT*kG; antisense) [compound 799989]	57
799946 (antisense kT*k[5mC]*kA*dG*dA*dA*d[5mC]*dA*d[5mC]*dA*d[5mC]*dT*dT*kT*kG*kG) [compound 799946]	2
799906 (antisense k[5mC]*kA*kT*dG*d[5mC]*dA*dG*dT*d[5mC]*dG*dA*dA*dT*k[5mC]*kA*kT) [compound 799906]	11
799368 (antisense k[5mC]*kT*kA*dA*dG*dT*d[5mC]*dT*d[5mC]*d[5mC]*dG*dA*dG*kT*kT*kA) [compound 799368]	68
798719 (antisense kA*kG*k[5mC]*dA*dT*d[5mC]*d[5mC]*dA*dG*d[5mC]*d[5mC]*d[5mC]*dT*kG*k[5mC]*k[5mC]) [compound 798719]	34
830106 (k[5mC]*kA*kT*dT*dA*dA*dG*d[5mC]*d[5mC]*d[5mC]*dG*d[5mC]*dT*k[5mC]*kT*k[5mC]; antisense) [compound 830106]	33
799983 (k[5mC]*kA*kT*d[5mC]*dA*d[5mC]*d[5mC]*dA*d[5mC]*dG*d[5mC]*d[5mC]*dT*k[5mC]*kG*k[5mC]; antisense) [compound 799983]	15
830089 (kA*kA*kG*dA*d[5mC]*d[5mC]*d[5mC]*dT*dG*dT*dA*dA*dG*k[5mC]*kT*kT; antisense) [compound 830089]	9
800080 (antisense kG*kG*kG*d[5mC]*dT*dA*d[5mC]*d[5mC]*dT*dT*dA*dA*d[5mC]*kA*kA*kA) [compound 800080]	14
830187 (antisense kA*kT*kT*dA*d[5mC]*d[5mC]*d[5mC]*dT*dG*d[5mC]*dT*d[5mC]*dA*kT*kG*kA) [compound 830187]	31
799925 (antisense k[5mC]*k[5mC]*kA*dA*dG*d[5mC]*d[5mC]*dT*dA*d[5mC]*dA*dT*dA*kT*kT*kT) [compound 799925]	10
798830 (kG*kA*kA*dG*dA*dT*dA*dT*d[5mC]*d[5mC]*dA*dG*dA*kG*kA*kG; antisense) [compound 798830]	17
798670 (kG*kG*k[5mC]*dG*dG*d[5mC]*dG*dG*d[5mC]*d[5mC]*d[5mC]*dG*dA*kG*kG*kG; antisense) [compound 798670]	44
798718 (antisense kA*kT*k[5mC]*d[5mC]*dA*dG*d[5mC]*d[5mC]*d[5mC]*dT*dG*d[5mC]*d[5mC]*k[5mC]*kG*kG) [compound 798718]	37

Same assay, conditions: Hep3B cells, electroporation with 10,000 nM antisense oligonucleotide, approximately 24 hours, primer probe set RTS5062, relative to untreated control cells

Substance	% Inhibition [%]	% inhibition of SMAD7 mRNA expression [%]
799175 (antisense kT*kA*kA*dA*dG*dT*d[5mC]*dT*dA*dA*dA*d[5mC]*dA*kT*kG*k[5mC]) [compound 799175]	0	
798924 (kA*kG*kT*dT*dT*dG*dA*dA*dG*dT*dG*dT*dG*kG*k[5mC]*k[5mC]; antisense) [compound 798924]	43	
799325 (antisense kT*k[5mC]*kT*d[5mC]*d[5mC]*d[5mC]*dA*dG*dG*dA*dG*dG*dG*kT*kA*kT) [compound 799325]		2
799231 (kG*k[5mC]*kT*dA*dG*dG*dT*dG*dA*dT*dA*dA*d[5mC]*kA*k[5mC]*k[5mC]; antisense) [compound 799231]		8
799482 (antisense kG*kA*kA*dA*dA*dG*d[5mC]*d[5mC]*dG*dG*dG*d[5mC]*dA*kT*k[5mC]*kT) [compound 799482]		30
772555 (antisense kA*kG*kG*d[5mC]*dA*d[5mC]*dG*d[5mC]*dG*dG*dT*dG*d[5mC]*kG*k[5mC]*kG) [compound 772555]		23
799139 (antisense k[5mC]*kG*kG*dA*d[5mC]*d[5mC]*dA*dA*dA*dT*d[5mC]*d[5mC]*dT*kT*k[5mC]*kT) [compound 799139]	56	
799222 (k[5mC]*kT*kT*dT*dT*dT*dT*dA*dA*dT*dT*dT*dG*kG*k[5mC]*kA; antisense) [compound 799222]	0	
772689 (kG*kT*kT*d[5mC]*dA*dT*dT*dT*dA*dA*dA*d[5mC]*d[5mC]*kT*kT*kT; antisense) [compound 772689]		26
799082 (antisense kG*k[5mC]*k[5mC]*d[5mC]*dA*dT*d[5mC]*dT*d[5mC]*dA*dG*dG*dG*kA*kG*kA) [compound 799082]	27	
799244 (kG*kG*kG*d[5mC]*d[5mC]*dA*d[5mC]*dT*dG*dG*dT*dG*dT*kT*k[5mC]*kG; antisense) [compound 799244]		8
798674 (antisense k[5mC]*kA*kG*dG*d[5mC]*dG*dA*d[5mC]*dA*dG*d[5mC]*dA*dG*k[5mC]*kA*kG) [compound 798674]		39
799000 (antisense kG*k[5mC]*k[5mC]*dG*d[5mC]*dA*d[5mC]*dA*d[5mC]*dT*d[5mC]*dA*d[5mC]*kA*k[5mC]*kT) [compound 799000]	42	

Same assay, conditions: Hep3B cells, electroporation, 10,000 nM antisense oligonucleotide, approximately 24 hours, RTS5062, relative to untreated control cells

Substance	% inhibition of SMAD7 mRNA expression [%]
799560 (kG*kG*k[5mC]*dA*d[5mC]*dA*dG*d[5mC]*dT*dT*d[5mC]*dT*dA*kT*kT*k[5mC]; antisense) [compound 799560]	18
799661 (antisense k[5mC]*kT*k[5mC]*d[5mC]*dA*d[5mC]*dT*dG*d[5mC]*d[5mC]*dT*d[5mC]*d[5mC]*kT*kA*k[5mC]) [compound 799661]	44
799637 (kG*k[5mC]*kA*d[5mC]*dA*dG*dA*d[5mC]*dT*dG*d[5mC]*d[5mC]*dA*kA*kA*kT; antisense) [compound 799637]	48
799681 (antisense kA*k[5mC]*kT*d[5mC]*dA*dT*d[5mC]*d[5mC]*dT*dG*dT*dT*dG*kG*k[5mC]*kA) [compound 799681]	53
799737 (antisense k[5mC]*kT*kT*dA*dG*dA*dG*dT*dA*dT*dA*dA*dA*kT*kA*k[5mC]) [compound 799737]	5

Same assay, conditions: SMAD7 mRNA, Hep3B cells, 10,000 nM antisense oligonucleotide, electroporation, approximately 24 hours, primer probe set RTS5062, relative to untreated control cells

Substance	% Inhibition [%]
829792 (k[5mC]*kT*kT*d[5mC]*d[5mC]*d[5mC]*dG*dT*dA*dA*dG*dA*dT*kT*k[5mC]*kA; antisense) [compound 829792]	39
772589 (kA*k[5mC]*k[5mC]*dG*dA*dT*d[5mC]*d[5mC]*d[5mC]*d[5mC]*dA*dG*dG*k[5mC]*kT*k[5mC]; antisense) [compound 772589]	9
790701 (kG*kG*kA*dT*dA*d[5mC]*dA*d[5mC]*dT*dT*dA*dA*dT*k[5mC]*kA*kA; antisense) [compound 790701]	57
829724 (antisense kG*kG*k[5mC]*dA*dT*dG*d[5mC]*dG*d[5mC]*d[5mC]*dA*dG*dT*k[5mC]*kT*k[5mC]) [compound 829724]	54
829783 (antisense kG*kA*kT*d[5mC]*d[5mC]*dG*dG*d[5mC]*d[5mC]*dA*d[5mC]*d[5mC]*dT*kG*kA*kA) [compound 829783]	52

Same assay, conditions: SMAD7 mRNA, Hep3B cells, electroporation with 10,000 nM antisense oligonucleotide, approximately 24 hours, primer probe set RTS5062, relative to untreated control cells

Substance	% Inhibition [%]
829898 (antisense kT*kG*kG*d[5mC]*dG*dG*dG*dT*dG*dT*dA*dG*d[5mC]*kA*k[5mC]*kT) [compound 829898]	31
829975 (k[5mC]*kA*kA*dA*dA*dG*dA*dG*dG*d[5mC]*d[5mC]*dG*d[5mC]*k[5mC]*kT*kG; antisense) [compound 829975]	32
829945 (kG*k[5mC]*k[5mC]*dA*dG*dT*dT*dA*dA*dT*d[5mC]*dA*dT*kT*kA*k[5mC]; antisense) [compound 829945]	31
